# Results reported in patent US12203088B2, “Root-secreted peptide PEP1 in rice and gene encoding the same and use thereof” (ZHEJIANG UNIVERSITY, priority 2021, dated 2025).
# Assays:
# [1] = test system: OsPEP1 RNAi transgenic plants; assay: Exogenous PEP1 on root tips of OsPEP1 RNAi transgenic plants; format: in vivo, rice Xiushui 134; settings: transgenic plant Ri2, 10^−6 M PEP1 for 2 days
# Source text: D is the longitudinal phenotype of the root tip elongation zone (top) and meristem (bottom) of the wild-type WT and the transgenic plant Ri2 […] treated with 10^−6 M PEP1 for 2 days. Bar=100 μm;
# (§1) E is the statistics of the apical meristem length indicated in D. Data are means±SD (n≥15 independent seedlings, three biological replicates). Different letters indicate significant differences (P<0.01, ANOVA, LSD test);
# F is the statistics of cell length in the elongation zone indicated in D. Data are means±SD (n≥15 independent seedlings, three biological replicates). Different letters indicate significant differences (P<0.01, ANOVA, LSD test).
# In the obtained T2 OsPEP1 RNAi transgenic plants, three representative plants (Ri1, Ri2, Ri3) were selected for phenotypic analysis. […] The relative expression levels of endogenous OsPEP1 in Xiushui 134 and those OsPEP1 RNAi transgenic plants (Ri1, Ri2, Ri3) were analyzed by quantitative real-time PCR (primers: […] (SEQ ID NO: 9); […] (SEQ ID NO: 10)). […] Additionally, exogenous application of PEP1 could restore the root tip defected phenotype of OsPEP1 RNAi transgenic plants to the Xiushui 134 level (D-F in FIG. 5).
# [2] = test system: rice seedlings; assay: Treatment of rice seedlings with synthetic PEP1, primary root length; format: in vivo, Oryza sativa L. ssp. Japonica cv. Xiushui134; settings: wild-type seedlings, different concentrations of synthetic PEP1, treatment from sowing for 7 days
# Source text: Different letters indicate significant differences (P<0.01, ANOVA, LSD test);
# [3] = test system: rice root tips; assay: Root tip longitudinal sections of wild-type rice after PEP1 treatment; format: in vivo, Oryza sativa L. ssp. Japonica cv. Xiushui134; set-up: length of cells in the elongation zone of rice root tips: dose or concentration left out as unconfirmed; settings: wild-type plants
# [4] = test system: OsPEP1 overexpressing transgenic plants; assay: Exogenous PEP1 on root tips of OsPEP1 overexpressing transgenic plants; format: in vivo, rice Xiushui 134; settings: transgenic plant OE2, 10^−6 M PEP1 for 2 days
# Source text: as §1
# F is the statistics of the cell length in the elongation zone indicated in D. Data are means±SD (n≥15 independent seedlings, three biological replicates). Different letters indicate significant differences (P<0.01, ANOVA, LSD test).
# In the obtained T2 OsPEP1 overexpressing transgenic rice plants, three representative plants (OE1, OE2, OE3) were chosen for phenotypic analysis. […] The relative expression levels of endogenous OsPEP1 in Xiushui 134 and OsPEP1 overexpressing transgenic plants (OE1, OE2, OE3) were analyzed by quantitative real-time PCR (primers: […] (SEQ ID NO: 9); […] (SEQ ID NO: 10)).
substance,measurement,setting,value
"Ser-Asp-Phe-Asp-Arg (SDFDR; Amino acid sequence of PEP1) [rice root-secreted peptide of five amino acids, artificially synthesized for exogenous application]",restoration of root tip defected phenotype to the Xiushui 134 level,[1],could restore
same,rice primary root elongation,[2],significantly inhibited rice primary root elongation
same,length of the meristem of rice root tips,[3]; 106 M PEP1 for 2 days,significantly shortened
same,length of cells in the elongation zone of rice root tips,[3]; PEP1 for 2 days,significantly shortened
same,changes in the quiescent center,[3]; root section after PEP1 treatment,no significant changes
same,restoration of root tip defected phenotype to the Xiushui 134 level,[4],could not restore
